Results taken from the NIST ThermoML archive (doi:10.1016/j.tca.2012.11.015).

Assay: molar heat capacity at constant pressure
Conditions: 101.33 kPa, Crystal, Small sample (50 mg) DSC

[F][Lu]([F])[F] [lutetium(III) fluoride]
Conditions | molar heat capacity at constant pressure [J/K/mol]
399.7 K | 96.75
405.1 K | 97.02
410.5 K | 95.88
415.8 K | 95.29
421.1 K | 96.94
426.3 K | 97.01
431.5 K | 96.43
436.7 K | 96.58
441.9 K | 96.64
447.1 K | 96.86
452.2 K | 96.8
457.3 K | 96.65
462.5 K | 95.51
467.6 K | 96.35
472.6 K | 96.98
477.7 K | 97.09
482.8 K | 97.11
487.8 K | 97.26
492.9 K | 97.48
497.9 K | 97.58
502.9 K | 97.68
508 K | 97.97
513 K | 98.13
518 K | 98.36
523 K | 98.49
528 K | 98.56
533.1 K | 98.68
538.1 K | 98.84
543.1 K | 98.87
548.1 K | 99.13
553.1 K | 99.24
558.1 K | 99.48
563.1 K | 99.09
568.1 K | 99.13
573.1 K | 99.33
578.1 K | 99.5
583.1 K | 99.58
588 K | 99.58
593 K | 99.6
598 K | 99.71
603 K | 99.98
608 K | 100.29
613 K | 100.45
618 K | 100.4
623 K | 100.24
627.9 K | 100.69
632.9 K | 101.13
637.9 K | 100.84
642.9 K | 101.01
647.9 K | 101.38
652.9 K | 101.53
657.9 K | 101.67
662.8 K | 101.64
667.8 K | 101.51
672.8 K | 101.61
677.8 K | 101.89
682.8 K | 102.02
687.8 K | 102.07
692.8 K | 102.12
697.7 K | 102.26
702.7 K | 102.44
707.7 K | 102.41
712.7 K | 102.81
717.7 K | 102.66
722.7 K | 102.97
727.6 K | 102.82
732.6 K | 104.53
737.6 K | 104.75
742.6 K | 104.55
747.6 K | 104.86
752.6 K | 105.12
757.6 K | 104.68
762.6 K | 103.97
767.5 K | 102.8
772.5 K | 103.35
777.5 K | 103.53
782.5 K | 103
787.5 K | 103.29
792.5 K | 103.69
797.5 K | 103.87
802.4 K | 103.76
807.4 K | 104.24
812.4 K | 103.94
817.4 K | 104.08
822.4 K | 104.49
827.4 K | 104.53
832.4 K | 104.46
837.4 K | 104.64
842.3 K | 104.66
847.3 K | 104.56
852.3 K | 104.93
857.3 K | 104.87
862.3 K | 104.94
867.3 K | 105.55
872.3 K | 105.31
877.3 K | 105.62
882.2 K | 105.71
887.2 K | 105.77
892.2 K | 105.39
897.2 K | 105.26
902.2 K | 105.24
907.2 K | 105.2
912.2 K | 105.01
917.2 K | 103.22
922.2 K | 101.86
927.1 K | 101.4
932.1 K | 101.32
937.1 K | 102.01
942.1 K | 103.86
947.1 K | 104.24
952.1 K | 104.41
957.1 K | 104.36
962.1 K | 105.18
967.1 K | 105.18
972.1 K | 104.61
977 K | 104.97
982 K | 105.26
987 K | 104.58
992 K | 104.27
997 K | 104.7
1002 K | 104.37
1007 K | 105.57
1012 K | 107.7
1017 K | 107.28
1022 K | 106.62
1027 K | 106.36
1031.9 K | 106.14
1036.9 K | 106.21
1041.9 K | 106.18
1046.9 K | 106.45
1051.9 K | 105.23
1056.9 K | 104.62
1061.9 K | 103.86
1066.9 K | 102.81
1071.9 K | 104.66
1076.9 K | 107.09
1081.9 K | 107.68
1086.9 K | 108.09
1091.9 K | 108.21
1096.9 K | 108.47
1101.9 K | 108.65
1106.9 K | 108.92
1111.9 K | 108.53
1116.9 K | 109.02
1121.9 K | 108.84
1126.9 K | 109.6
1131.9 K | 109.55
1136.9 K | 109.42
1141.8 K | 108.84
1146.8 K | 109.13
1151.8 K | 109.39
1156.8 K | 108.91
1161.8 K | 108.91
1166.8 K | 109.26
1171.8 K | 109.47
1176.8 K | 109.96
1181.8 K | 108.7
1186.8 K | 107.48
1191.8 K | 106.02
1196.8 K | 104.98
1201.8 K | 104.23
1206.8 K | 104.19
1211.8 K | 107.96
